Measurements taken from patent publication US6046209A (priority 1998, dated 2000).

Assays:
topoisomerase II = conditions: cited from earlier work
[1] = in vivo; cited from earlier work
Colon Carcinoma 26 = assay: Efficacy in mouse tumor model Colon Carcinoma 26; format: in vivo
Method: (§1) The efficacy of the compounds of the present invention was also tested in vivo using three well-known mouse tumor models: L1210, Lewis Lung, and Colon Carcinoma 26.

L1210 = assay: Efficacy in mouse tumor model L1210; format: in vivo
Method: as §1

[2] = tested on: solid tumor cancers, particularly ovarian cancer and non-small cell lung carcinoma; conditions: humans; cited from earlier work
Lewis Lung = assay: Efficacy in mouse tumor model Lewis Lung; format: in vivo
Method: as §1

[3] = tested on: topoisomerase I; mouse tumor models; assay: Overall comparison of topoisomerase I inhibition ability, cytotoxicity and efficacy in mouse tumor models; conditions: results of Table I

Compound: COc1cccc2c1C(=O)c1c(O)c3c(c(O)c1C2=O)C[C@@](O)(C(=O)CO)C[C@@H]3O[C@H]1C[C@H](N)[C@H](O)[C@H](C)O1 [doxorubicin]
- effect on topoisomerase II (topoisomerase II): Inhibition of topoisomerase II

Compound: (S)-10-amino-4-ethyl-4-hydroxy-1H-pyrano[3',4':6,7]indolizino[1,2-b]quinoline-3,14(4H,12H)-dione [CPT-11]
- toxicity profile [1]: adverse toxicity profile

Compound: COc1cc([C@@H]2c3cc4c(cc3[C@@H](O[C@@H]3O[C@@H]5CO[C@@H](C)O[C@H]5[C@H](O)[C@H]3O)[C@H]3COC(=O)[C@H]23)OCO4)cc(OC)c1O [etoposide]
- effect on topoisomerase II (topoisomerase II): Inhibition of topoisomerase II

Compound: O=C1c2c(O)ccc(O)c2C(=O)c2c(NCCNCCO)ccc(NCCNCCO)c21 [mitoxantrone]
- effect on topoisomerase II (topoisomerase II): Inhibition of topoisomerase II

Compound: CC[C@@]1(O)C(=O)OCc2c1cc1n(c2=O)Cc2cc3ccccc3nc2-1 [Camptothecin]
- % Inc. in Lifespan, Colon 26 (Colon Carcinoma 26; 4 mg/kg ip): 50%
- % Inc. in Lifespan, L1210 (L1210; 12 mg/kg ip): 133%

Compound: CC[C@@]1(O)C(=O)OCc2c1cc1n(c2=O)Cc2cc3c(CN(C)C)c(O)ccc3nc2-1 [Topotecan, 9-dimethylaminomethyl-10-hydroxycamptothecin]
- efficacy in clinical tests [2]: efficacy against several solid tumor cancers, particularly ovarian cancer and non-small cell lung carcinoma
- % Inc. in Lifespan, Colon 26 (Colon Carcinoma 26; 20 mg/kg sc): 45%
- % Inc. in Lifespan, Lewis Lung (Lewis Lung; 15 mg/kg ip): 106%
- % Inc. in Lifespan, L1210 (L1210; 15 mg/kg ip): 217%

Compound: CC[C@@]1(O)C(=O)OCc2c1cc1n(c2=O)Cc2cc3c4c(ccc3nc2-1)OC(CN1CCOCC1)C4 (stereo partly drawn) [Formula III, (8S)-8-ethyl-1,2-dihydro-8-hydroxy-2(4-morpholinylmethyl)-11H-furano[3,2-f]-pyrano[3',4':6,7]indolizino[1,2-b]quinoline-9,12(8H,14H)-dione]
- biological activity compared with camptothecin and topotecan [3]: comparable to camptothecin and topotecan
- % Inc. in Lifespan, Colon 26 (Colon Carcinoma 26; 20 mg/kg sc): 45%
- % Inc. in Lifespan, Lewis Lung (Lewis Lung; 22 mg/kg ip): > 225%
- % Inc. in Lifespan, L1210 (L1210; 42 mg/kg ip): 350%

Compound: CC[C@@]1(O)C(=O)OCc2c1cc1n(c2=O)Cc2cc3c4c(ccc3nc2-1)OC(CN(C)C)C4 (stereo partly drawn) [Formula IV, (8S)-2-[(dimethylamino)methyl]-8-ethyl-1,2-dihydro-8-hydroxy-11H-furano[3,2-f]-pyrano[3',4':6,7]indolizino[1,2-b]quinoline-9,12(8H,14H)-dione]
- biological activity compared with camptothecin and topotecan [3]: comparable to camptothecin and topotecan
- % Inc. in Lifespan, Colon 26 (Colon Carcinoma 26; 20 mg/kg sc): 32%
- % Inc. in Lifespan, Lewis Lung (Lewis Lung; 9 mg/kg ip): 67%
- % Inc. in Lifespan, L1210 (L1210; 15 mg/kg ip): 225%
